From patent publication US7405280B2, “Chromogenic substances and use thereof for the determination of carboxypeptidase activities” (Diagnostica Stago, priority 2001, dated 2008)

Key:
[1] = target: T1, porcine pancreatic carboxypeptidase B (Sus scrofa, UniProt P09955); test: Decolorization of single amino acid substrate AAFR by porcine pancreatic carboxypeptidase B; assay type: biochemical; conditions: porcine CPB 5.2 mol/l in Hepes buffer; 5 mM AAFR; at 382 nm
T1 construct: purchased Sigma C9584; host or cells: porcine pancreas
T1 sequence (P09955 111-416): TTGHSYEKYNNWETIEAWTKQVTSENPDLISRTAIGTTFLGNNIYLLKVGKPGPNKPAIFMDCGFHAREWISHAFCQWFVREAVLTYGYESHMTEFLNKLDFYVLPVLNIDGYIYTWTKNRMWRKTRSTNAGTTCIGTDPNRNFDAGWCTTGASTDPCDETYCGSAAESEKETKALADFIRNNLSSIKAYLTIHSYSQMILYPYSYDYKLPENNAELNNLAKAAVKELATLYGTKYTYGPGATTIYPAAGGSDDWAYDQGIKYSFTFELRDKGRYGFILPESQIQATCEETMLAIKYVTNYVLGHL
Experimental: (§1) This substrate was constituted by a single amino acid carrying an anizylazoformyl chromophoric radical (CH3OC6H4—N═N—CO— portion). The amino acid selected was arginine, a basic amino acid normally hydrolyzed by carboxypeptidases B (1).
(§2) This substrate (0.25 mM) was brought into the presence of either a sample of plasma TAFI or a solution of porcine pancreatic carboxypeptidase B (Sigma, Reference: C9584), […].
(§3) The reduction in coloration of each of the two samples was followed using a spectrophotometer. Each sample was treated using the protocol below: • a) Starting sample: • plasma TAFI (present in a normal plasma pool—diluted to 1/20); or • porcine pancreatic carboxypeptidase B, […] (in Hepes buffer); • b) activation with thrombin-thrombomodulin-CaCl2 complex (see Example N^o 2) for the plasma TAFI sample; • c) addition of 5 mM AAFR; • d) read OD at 382 nm.

plasma TAFI (TAFIa) = target: T2, plasma TAFI (TAFIa) (Homo sapiens, UniProt Q96IY4); test: Decolorization of single amino acid substrate AAFR by activated plasma TAFI; assay type: biochemical; conditions: compared with pancreatic CPB
T2 construct: from tissue; host or cells: normal plasma pool, diluted 1/20
T2 sequence (Q96IY4 115-423): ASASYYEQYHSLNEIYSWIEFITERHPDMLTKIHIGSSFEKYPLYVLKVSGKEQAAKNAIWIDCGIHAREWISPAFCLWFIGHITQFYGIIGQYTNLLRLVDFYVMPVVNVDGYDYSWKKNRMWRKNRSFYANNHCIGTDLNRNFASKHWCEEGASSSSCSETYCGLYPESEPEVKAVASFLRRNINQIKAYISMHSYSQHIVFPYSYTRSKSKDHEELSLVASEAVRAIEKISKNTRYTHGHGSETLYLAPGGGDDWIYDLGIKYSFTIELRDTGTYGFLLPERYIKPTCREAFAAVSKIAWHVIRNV
Experimental: as §1, §2, §3

purified TAFI (TAFIa) = target: T3, purified TAFI (TAFIa) (Homo sapiens, UniProt Q96IY4); test: Hydrolysis of MxAFR or MxPAFFK by activated purified TAFI solution; assay type: biochemical; conditions: purified TAFI 18 μg/ml
T3 sequence (Q96IY4 115-423): T2 sequence (Q96IY4 115-423)
Experimental: 2/ The method of the invention was then applied to a solution of purified TAFI either with a substrate with formula (I) (MxPAFFK) or with MxAFR to verify that TAFIa nevertheless hydrolyzes a compound with formula (I). Coagulation activation was triggered by the thrombin-thrombomodulin-CaCl2 complex (see protocol in Example N^o 2).
The reduction in coloration of each of the two samples was followed using a spectrophotometer. • a) Starting samples: purified TAFI solution, 18 μg/ml (diluted in Hepes buffer); • b) activating coagulation; • c) adding 27 mM MxAFR or MXPAFFK (control), concentration of MxAFFK; • d) adding CPA to the sample containing the MxPAFFK; • e) read OD at 382 nm.

TAFI = conditions: per 1 mg of PCI; as indicated by the manufacturer (Calbiochem); cited from earlier work

Compound	Final OD [1]	Starting OD [1]	Hydrolysis by activated TAFI (conclusion) (plasma TAFI (TAFIa))	Hydrolysis by activated TAFI (conclusion) (purified TAFI (TAFIa))	Amount of TAFI (50 U/mg) inhibited at 50% by 1 mg of PCI (TAFI)
COc1ccc(N=NC(=O)N[C@@H](CCCNC(=N)N)C(=O)O)cc1 [AAFR, 4-methoxyphenylazoformylarginine]	0.445	1.054	does not hydrolyze	does not hydrolyze	–
COc1ccc(/N=N/C(=O)NC(Cc2ccccc2)C(=O)NC(CCCCN)C(=O)O)cc1 (stereo not drawn) [MxPAFFK, 4-metboxyphenylazoformylphenylalanyllysine]	–	–	–	active	–
PCI: Carboxypeptidase Inhibitor from Potato Tubers, specific TAFI inhibitor (Calbiochem ref 217359) (QQHADPICNKPCKTHDDCSGAWFCQACWNSARTCGPYVG; UniProt P01075 1-39, looked up)	–	–	–	–	about 8 mg
